# Results: patent US9062026B2, “Fused pyrimidines and substituted quinazolines as inhibitors of p97” (Cleave Biosciences, Inc., priority 2012, dated 2015)
# Read-outs that look alike come from different tables or passages of the source.
# Biological target: p97 (Homo sapiens (Human), UniProt P55072)
# Assay: P97 ATPase biochem assay (ADP Glo)
# Format: biochemical
# Method: The ATPase assay is performed according the following protocol: Purified enzyme (20 nM p97), substrate (20 μM ATP) and a dose titration of compounds are mixed in buffer (50 mM TRIS pH 7.5, 20 mM MgCl2, 0.02% TX-100, 1 mM DTT, 0.2% (v/v) glycerol) and incubated at 37° C. for 15 minutes. The reaction is terminated and the level of product generated is measured using the ADP Glo Assay Kit (Promega, Madison Wis.). Plotting product generated versus compound concentration and using a four-parameter fit model generates an IC50 value for each compounds.
# [1] = 20 nM p97, 20 μM ATP, 37° C., 15 minutes, read-out: p97 biochem IC50
# p97, sequence (P55072 whole entry): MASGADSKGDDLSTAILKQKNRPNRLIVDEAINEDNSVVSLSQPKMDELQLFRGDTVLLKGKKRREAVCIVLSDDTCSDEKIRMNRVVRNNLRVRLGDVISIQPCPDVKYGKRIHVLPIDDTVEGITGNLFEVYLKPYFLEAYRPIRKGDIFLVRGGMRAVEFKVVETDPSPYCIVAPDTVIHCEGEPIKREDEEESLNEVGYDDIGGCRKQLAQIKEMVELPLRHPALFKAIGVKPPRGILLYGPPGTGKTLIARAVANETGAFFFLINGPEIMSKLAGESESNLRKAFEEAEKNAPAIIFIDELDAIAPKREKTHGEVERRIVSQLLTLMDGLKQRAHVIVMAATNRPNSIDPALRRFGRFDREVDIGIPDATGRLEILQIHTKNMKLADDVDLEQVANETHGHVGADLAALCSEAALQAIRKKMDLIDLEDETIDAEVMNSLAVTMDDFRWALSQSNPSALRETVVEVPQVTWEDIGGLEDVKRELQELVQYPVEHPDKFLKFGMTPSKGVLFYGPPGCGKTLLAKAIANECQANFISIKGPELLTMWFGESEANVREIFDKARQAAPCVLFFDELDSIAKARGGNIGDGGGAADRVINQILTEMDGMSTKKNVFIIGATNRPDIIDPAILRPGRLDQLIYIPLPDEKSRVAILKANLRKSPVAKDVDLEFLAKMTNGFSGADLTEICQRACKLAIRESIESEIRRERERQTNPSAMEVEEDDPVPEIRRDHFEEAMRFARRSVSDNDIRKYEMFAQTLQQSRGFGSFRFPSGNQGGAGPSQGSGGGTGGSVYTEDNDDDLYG
Structure (SMILES),IC50 [1] [nM],IC50 (read-out: p97 IC50) [nM]
COc1cccc2c(NCc3ccccc3)nc(-n3c(C)nc(C)c3C)nc12,< 25000,–
CCC1=NC(C)=C(C)C1c1nc(NCc2ccccc2)c2cccc(OC)c2n1 (centres unmarked),< 25000,–
COc1cccc2c(NCc3ccccc3)nc(CCc3ccccc3)nc12,< 25000,–
COc1cccc2c(NCc3ccccc3)nc(CCC(C)C)nc12,< 10000,–
COc1cccc2c(NCc3ccccc3)nc(N3CCOc4ccccc43)nc12,< 5000,–
COc1cccc2c(NCc3ccccc3)nc(-n3c(N)nc4cccc(F)c43)nc12,< 10000,–
COc1cccc2c(NCc3ccccc3)nc(-n3c(C)nc4ccccc43)nc12,< 2000,–
COc1cccc2c(NCc3ccccc3)nc(-n3cnc4ccccc43)nc12,< 2000,–
COc1cccc2c(NCc3ccccc3)nc(-n3c(OC)nc4ccccc43)nc12,< 2000,–
COc1cccc2c(NCc3ccccc3)nc(Nc3ccccn3)nc12,< 10000,–
COc1cccc2c(NCc3nccs3)nc(-n3c(N)nc4ccccc43)nc12,< 25000,–
NCCOc1cccc2c(NCc3ccccc3)nc(-n3c(N)nc4ccccc43)nc12,< 2000,–
COCCOc1cccc2c(NCc3ccccc3)nc(-n3c(N)nc4ccccc43)nc12,< 2000,–
NC(=O)COc1cccc2c(NCc3ccccc3)nc(-n3c(N)nc4ccccc43)nc12,< 2000,–
COCc1cccc2c(NCc3ccccc3)nc(-n3c(N)nc4ccccc43)nc12,< 2000,–
Cc1cc2ccccc2n1-c1nc(NCc2ccccc2)c2cccc(CN)c2n1,< 2000,–
CN(C)Cc1cccc2c(NCc3ccccc3)nc(-n3c(N)nc4ccccc43)nc12,< 25000,–
COc1nc2ccccc2n1-c1nc(NCc2ccccc2)c2ncsc2n1,< 2000,–
Nc1nc2ccccc2n1-c1nc(NCc2ccccc2)c2nc[nH]c2n1,< 5000,–
Nc1nc2ccccc2n1-c1nc2c(c(NCc3ccccc3)n1)CCC2,< 2000,–
COCc1nc(-n2c(N)nc3ccccc32)nc(NCc2ccccc2)c1C,< 5000,–

Structure (SMILES),IC50 [1] [nM],IC50 (read-out: p97 IC50) [nM]
COc1cccc2c(NCc3ccccc3)nc(Nc3ncc[nH]3)nc12,< 10000,–
CNc1nc2ccccc2n1-c1nc(NCc2ccccc2)c2cccc(OC)c2n1,< 2000,–
COc1cccc2c(NCc3ccccc3)nc(-n3c(N(C)C)nc4ccccc43)nc12,< 2000,–
COc1cccc2c(NCc3ccccc3)nc(-n3c(NC(C)=O)nc4ccccc43)nc12,< 5000,–
COc1cccc2c(NCc3ccccc3)nc(-c3c(N)[nH]c4ccccc34)nc12,< 2000,–
COc1cccc2c(NCc3ccccc3)nc(N3c4ccccc4CC3C)nc12 (centres unmarked),< 5000,–
COc1cccc2c(NCc3ccccc3)nc(N(C(N)=O)c3ccccc3)nc12,< 5000,–
COc1cccc2c(NCc3ccccc3)nc(N3C(=O)Cc4ccccc43)nc12,< 2000,–
COc1cccc2c(NCc3ccco3)nc(-n3c(N)nc4ccccc43)nc12,< 5000,–
COc1cccc2c(NCc3ccoc3)nc(-n3c(N)nc4ccccc43)nc12,< 5000,–
COc1cccc2c(NCc3ccccc3)nc(-n3c(=O)[nH]c4ccccc43)nc12,< 2000,–
COc1cccc2c(NCc3ccccc3)nc(-n3c(=O)n(C)c4ccccc43)nc12,< 5000,–
COc1cccc2c(NCc3ccccc3)nc(-n3c(CN)nc4sccc43)nc12,< 2000,–
COc1cccc2c(NCc3ccccc3)nc(-n3c(C)cc4ccccc43)nc12,< 2000,–
COc1cccc2c(NCc3ccccc3)nc(C(C)c3ccccc3)nc12 (centres unmarked),< 10000,–
COc1cccc2c(NCc3ccccc3)nc(C3NCc4ccccc43)nc12 (centres unmarked),< 5000,–
COc1cccc2c(NCc3ccccc3)nc(C3CNc4ccccc43)nc12 (centres unmarked),< 2000,–
COC1=Nc2ccccc2C1c1nc(NCc2ccc(F)cc2)c2cccc(OC)c2n1 (centres unmarked),< 2000,–
COc1nc2ccccc2n1-c1nc2c(c(NCc3ccccc3)n1)CNCC2,< 2000,–
Cc1cc2ccccc2n1-c1nc2c(c(NCc3ccccc3)n1)CNCC2,< 2000,–
Cc1cc2ccccc2n1-c1nc2c(c(NCc3ccccc3)n1)CCNC2,< 2000,–

Structure (SMILES),IC50 [1] [nM],IC50 (read-out: p97 IC50) [nM]
COc1nc2ccccc2n1-c1nc(NCc2ccccc2)c2c(n1)C(=O)NCC2,< 5000,–
Cc1cc2ccccc2n1-c1nc2c(c(NCc3ccccc3)n1)CNC2,< 2000,–
COc1cccc2c(NCc3ccccc3)nc(C3c4ccccc4CN3C)nc12 (centres unmarked),< 10000,–
COc1cccc2c(NCc3ccccc3)nc(-n3c(CN)cc4ccccc43)nc12,< 2000,–
COc1cccc2c(NCc3ccccc3)nc(-n3ccc4ccccc43)nc12,< 2000,–
COc1cccc2c(NCc3ccccc3)nc(-n3cc(C)c4ccccc43)nc12,< 10000,–
COc1cccc2c(NCc3ccccc3)nc(-c3c(C)oc4ccccc34)nc12,< 2000,–
Cc1cc2ccccc2n1-c1nc(NCc2ccccc2)c2cccc(C(N)=O)c2n1,< 2000,–
Cc1cc2ccccc2n1-c1nc2c(c(NCc3ccccc3)n1)COC2,< 2000,–
Cc1cc2ccccc2n1-c1nc(NCc2ccccc2)c2cccc(C#N)c2n1,< 2000,–
Cc1cc2ccccc2n1-c1nc2c(c(NCc3ccccc3)n1)CCN(C(=O)OC(C)(C)C)C2,< 2000,–
CC(=O)N1Cc2nc(-n3c(C)cc4ccccc43)nc(NCc3ccccc3)c2C1,< 2000,–
CC(=O)N1CCc2nc(-n3c(C)cc4ccccc43)nc(NCc3ccccc3)c2C1,< 2000,–
CC(=O)N1CCc2c(nc(C3C(C)=Cc4ccccc43)nc2NCc2ccccc2)C1 (centres unmarked),< 2000,–
COc1cc2ccccc2n1-c1nc(NCc2ccccc2)c2c(n1)C(=O)N(C(=O)OC(C)(C)C)CC2,< 2000,–
Cc1cc2ccccc2n1-c1nc2c(c(NCc3ccccc3)n1)CCCC2,< 2000,–
CCc1cc2ccccc2n1-c1nc2c(c(NCc3ccccc3)n1)CCCC2,< 5000,–
CC(N)c1cc2ccccc2n1-c1nc2c(c(NCc3ccccc3)n1)CCCC2 (centres unmarked),< 2000,–
COCCOc1cccc2c(NCc3ccccc3)nc(C3C(ON)=Nc4ccccc43)nc12 (centres unmarked),< 2000,–
C=CC(=O)NCc1cc2ccccc2n1-c1nc(NCc2ccccc2)c2cccc(OC)c2n1,< 2000,–
CCc1nc2ccccc2n1-c1nc(NCc2ccccc2)c2cccc(OC)c2n1,< 2000,–

Structure (SMILES),IC50 [1] [nM],IC50 (read-out: p97 IC50) [nM]
COCc1cc2ccccc2n1-c1nc2c(c(NCc3ccccc3)n1)CCCC2,< 2000,–
CC(=O)C1CCc2c(nc(-n3c(CN)cc4ccccc43)nc2NCc2ccccc2)C1 (centres unmarked),< 2000,–
CCN1CCc2c(nc(-n3c(CN)cc4ccccc43)nc2NCc2ccccc2)C1,< 2000,–
COC(=O)N1CCc2c(nc(-n3c(CN)cc4ccccc43)nc2NCc2ccccc2)C1,< 2000,–
NCc1cc2ccccc2n1-c1cc(NCc2ccccc2)c2c(n1)CN(C(N)=O)CC2,< 2000,–
CS(=O)(=O)N1CCc2c(nc(-n3c(CN)cc4ccccc43)nc2NCc2ccccc2)C1,< 2000,–
CNCCN1CCc2c(nc(-n3c(CN)cc4ccccc43)nc2NCc2ccccc2)C1,< 10000,–
CNCC(=O)N1CCc2c(nc(-n3c(CN)cc4ccccc43)nc2NCc2ccccc2)C1,< 10000,–
"Cc1cc2c(C#N)cccc2n1-c1nc2c(c(NCc3ccccc3)n1)CCCC2 [1-[4-(benzylamino)-5,6,7,8-tetrahydroquinazolin-2-yl]-2-methyl-1H-indole-4-carbonitrile]",–,< 100
"COc1cc2c(C#N)cccc2n1-c1nc2c(c(NCc3ccccc3)n1)CNCC2 [1-[4-(benzylamino)-5H,6H,7H,8H-pyrido[4,3-d]pyrimidin-2-yl]-2-methoxy-1H-indole-4-carbonitrile]",–,< 300
"Cc1cc2c(C#N)cccc2n1-c1nc2c(c(NCc3ccccc3)n1)COCC2 [1-[4-(benzylamino)-5H,7H,8H-pyrano[4,3-d]pyrimidin-2-yl]-2-methyl-1H-indole-4-carbonitrile]",–,< 100
"COCC(=O)N1CCc2nc(-n3c(C)cc4c(C#N)cccc43)nc(NCc3ccccc3)c2C1 [1-[4-(benzylamino)-6-(2-methoxyacetyl)-5H,6H,7H,8H-pyrido[4,3-d]pyrimidin-2-yl]-2-methyl-1H-indole-4-carbonitrile]",–,< 30
"CCN1CCc2nc(-n3c(C)cc4c(C#N)cccc43)nc(NCc3ccccc3)c2C1 [1-[4-(benzylamino)-6-ethyl-5H,6H,7H,8H-pyrido[4,3-d]pyrimidin-2-yl]-2-methyl-1H-indole-4-carbonitrile]",–,< 100
COCCOc1cccc2c(NCc3ccccc3)nc(-n3c(OC)cc4c(C#N)cccc43)nc12 [1-[4-(benzylamino)-8-(2-methoxyethoxy)quinazolin-2-yl]-2-methoxy-1H-indole-4-carbonitrile],–,< 100
COCCOc1cccc2c(NCc3ccccc3)nc(-n3c(C)cc4c(C#N)cccc43)nc12 [1-[4-(benzylamino)-8-(2-methoxyethoxy)quinazolin-2-yl]-2-methyl-1H-indole-4-carbonitrile],–,< 30
COCCOc1cccc2c(NCc3ccccc3)nc(-n3c(C(C)N)cc4ccccc43)nc12 (centres unmarked) [2-[2-(1-aminoethyl)-1H-indol-1-yl]-N-benzyl-8-(2-methoxyethoxy)quinazolin-4-amine],–,< 300
COc1cccc2c(NCc3ccccc3)nc(-n3c(/C=C/C#N)cc4ccccc43)nc12 [(2E)-3-{1-[4-(benzylamino)-8-methoxyquinazolin-2-yl]-1H-indol-2-yl)prop-2-enenitrile],–,< 300
COc1cccc2c(NCc3ccccc3)nc(-n3c(/C=C(/C#N)C(N)=O)cc4ccccc43)nc12 [(2Z)-3-{1-[4-(benzylamino)-8-methoxyquinazolin-2-yl]-1H-indol-2-yl}-2-cyanoprop-2-enamide],–,< 100
COc1cccc2c(NCc3ccccc3)nc(-n3c(/C=C\C#N)cc4ccccc43)nc12 [(2Z)-3-{1-[4-(benzylamino)-8-methoxyquinazolin-2-yl]-1H-indol-2-yl}prop-2-enenitrile],–,< 300
COCCOc1cccc2c(NCc3ccccc3)nc(-n3c(CNC(N)=O)cc4ccccc43)nc12 [({1-[4-(benzylamino)-8-(2-methoxyethoxy)quinazolin-2-yl]-1H-indol-2-yl}methyl)urea],–,< 100
